Measured values taken from PMC11061730, “Bacterial stigmasterol degradation involving radical flavin delta-24 desaturase and molybdenum-dependent C26 hydroxylase” (The Journal of Biological Chemistry, 2024).

Key:
[1] = target: T1, Δ24-steroid desaturase (Δ24-SD) (Sterolibacterium denitrificans, UniProt A0A7Z7MWF7+A0A7Z7MWR3); experiment: LC-MS/MS of tryptic peptides; acid denaturation; assay type: binding; conditions: covalent; histidyl residue near N terminus in both subunits
T1 construct: gene SDENCHOL_21263; alpha 63 kDa, beta 57 kDa; covalent FMN on a histidine of each subunit

[2] = substrate: CC[C@H](/C=C/[C@@H](C)[C@H]1CC[C@H]2[C@@H]3CCC4=CC(=O)C=C[C@]4(C)[C@H]3CC[C@]12C)C(C)C; experiment: UPLC assay of SDO to STO conversion, Michaelis-Menten fit; assay type: biochemical, Sterolibacterium denitrificans; conditions: 1 mM DCPIP as electron acceptor, 50 mM Mops/KOH pH 7.0, 6% (w/v) HPCD, 30 °C, aerobic

Molecule	LC-MS/MS of tryptic peptides; acid denaturation [1]	Km [2]
Cc1cc2nc3c(=O)[nH]c(=O)nc-3n(C[C@H](O)[C@H](O)[C@H](O)COP(=O)(O)O)c2cc1C [flavin mononucleotide]	contained flavin mononucleotide (FMN) modifications in both subunits	–
Δ24-steroid desaturase (Δ24-SD) (Sterolibacterium denitrificans) (protein, alpha 63 kDa, beta 57 kDa; covalent FMN on a histidine of each subunit) chain 1: MKNYDVIIIGGGINGLTTACYLQKAGLSVGVFEARGQCGAHCDTIELGRPGFLFNTHATWLVPAMSPPMADLELEKFNLELLGTDVIFAMPHADGTNTVQALDPGITMASIARHSEKDAALLGRIMEFGMMHMQEALEINGQMQYSRPTMALAERIAKLNDGLCKHLGLPIDGDDVMRMTGFELLELVYESEKVRLVPGTLGEYTGQWPLNRRVAPTVLGLCGMNPMAVHTAKGGSHALNHALVRCFVKHGGEIWTTCPVSKIIVENGRAVGIKLSEDALMPGEEIRAKNIVSNLTLTPTFTKLLGEEVIGPDWMRRIKYFNYDDPQLLGMYYAMKDAPVFKSAEYDPAIQRCWVGYFGPDSIDDVRNAQSQVMAGIMPTQTMGGWFNPTLADPSQAPAGHHVVSTWITVPPSPRKWGNKTLNGWSSWREGFGEALADTMDDLYEKMAPGFKDLIIERHINTPMDQENSNPSAVRGNMIGGSAIPEQAGENRPLPGVCVNGASRTFIPGLYLSNSIHPFGATHLASGYIAAVELAEDLGCRNQSWWISQPFEWFMGNLGNIPLNAGVADKWKV chain 2: MSNETKFDAIVIGGGPNGLLAGAYLAKTGHKVVLFERRHETGGGLNTDEYFGFRFNLHAIYHLMAEKMPAWKDLDLANFGVRYLYPHVVAAFPFKDGSSLIFTRDVKETAESIAQFSKEDAAAYLAMWDEFQPMLDDYLIPMTYELPKPALDQLAEFGETEVGAKLAEISELSCLEVIDHYGFTHPRVRMALLSFPAMWGIHLADPLGFLYPLYLGRMLDAAFVKGGSHRLSSGMYRVFVKNGGTVIDENEVTRILVEDNRVTGVELQDGRRFMADAVVSTLNPVQTFKQLLPKDDVPYALHQAVDNWRWEERSFFGLHLGIDGGVRYNAQDPRVNEAMTVFIGLETEDELLDHLDRVDGKTTNGPEWLHIAQPTTFDKTMAPPNHSVIRAEAVVAYDPEWRARTPAFAAGCLDLIKQYATVDKVVQQRTVSPIDIEEKLTTMHRGSYKHGAYSTLQLGYLRPNDLCSCSETPIDGLFLGGASMYPGGMILGGPGYLAAQVTNDYLGEPVKK	–	51.5 ± 8.2 µM
